Data published in PMC12117998, “First Steps toward the Design of Peptides that Influence the Intracellular Palmitoylation Machinery” (Chembiochem, 2025).
No end group written: not given here.

What was measured:
mEGFP‐HRas = assay: Fluorescence microscopy of mEGFP‐HRas localization; assay type: cell-based; details: HeLa mEGFP‐HRas cells, doxycycline-induced, 100 μM peptide, 6 h, n = 3 (Figure 8A)
Excerpt: mEGFP‐HRas was amplified from a plasmid gifted from Karel Svoboda^[ [69] ^] (Addgene plasmid # 18662) using the primers 5′‐gcgGGTACCgccaccatggtgagcaagg‐3′ and 5′‐gcgGCGGCCGCtcaggagagcacacactt‐3′. KpnI and NotI restriction sites (capital letter) were used and the construct was cloned into the pcDNA5 FRT‐TO vector to generate an inducible T‐REx‐HeLa cell line using the Flp‐In T‐REx System (Invitrogen). The plasmid was verified by sequencing. The construct was co‐transfected together with the pOG44 vector using the FuGENE HD transfection reagent (Promega). Positive clones were selected with DMEM medium supplemented with 10% FCS, 500 μg ml^−1 penicillin/streptomycin 100 μg ml^−1 hygromycin and 10 μg ml^−1 blasticidin and verified by fluorescence microscopy and immunoblot.
A total of 35,000 HeLa mEGFP‐HRas cells were seeded into an 8‐well plate. Cells were induced with […] ml^−1 doxycycline and incubated for around 15 h under standard growth conditions. Afterward, cells were treated for 6 h with 100 μM peptide diluted in serum‐free medium. And, 10 min prior to the end of the incubation time, the Hoechst 33342 nuclear dye was added. Cells were washed with serum‐free media. Finally, complete medium was added and cells were imaged on the UltraView VoX Spinning Disk Confocal Microscope (Perkin Elmer) on a 60X oil objective at 37 °C and 5% CO2. Images were cropped and processed using Fiji.

[1] = Peptide incubation in media and identification of peptide species (LC-MS); assay type: physicochemical
Method: Hela cells (15,000) were seeded into a 96-well plate. Cells were treated with suitable peptide concentrations diluted in the corresponding serum-free culture medium. After 1 h peptide incubation under standard growth conditions, the positive control was either directly treated with lysis solution or the supernatant was exchanged for serum-free culture medium and the plate was incubated for further 5 h under growing conditions. The CytoTox-ONE™ Reagent was added and incubated at RT for 10 minutes. Finally, the Stop Solution was added and the fluorescence was measured at 595 nm (λex = 550 nm) on an infinite M200 plate reader (Tecan) and normalized to the positive control cells.
Red blood cells (RBCs) were washed three times in PBS by centrifug ing at 4 °C and 3,000 x g for 5 min and diluted to 5% in PBS. The desired peptide concentrations diluted in PBS were added into a 96-well plate. Next, 5% RBCs in PBS were added into the wells and incubated for 24 h at 37 °C and 5% CO2. As a positive control, RBCs were mixed with 10% Triton X-100 in PBS. After the incubation time was completed, the plate was centrifuged at 2,500 x g for 3 min at RT and 100 μL of the supernatant was transferred into a fresh 96 -well plate. Lastly, the absorption (λ=560 nm) was measured on the infinite M200 plate reader (Tecan). For the evaluation, the measured absorption of the Triton-X-100 treatment was set to a hemolysis rate […]
30,000 HeLa cells were seeded into an 8-well. Cells were stained for 10 min with the Hoechst 33342 nuclear dye and transferred to the microscope UltraView VoX Spinning Disk Confocal Microscope (Perkin Elmer). 5 µM CF-DC-2 were added to the cells. Cells were imaged on a Plan-Apo Tirf 60X oil objective (NA 1.49, Nikon) at 37°C a nd 5% CO2. […]
mixed with 5 µl TFA. […] Finally, the different peptide species were analyzed by analytical HPLC ESI-MS (LTQ XL, Thermo Scientific) using a gradient of 10% to 60% of acetonitrile (ACN) in ddH2O + 0.1% formic acid (FA) on an Aeris 3.6 µm PEPTIDE XB-C18 100 LC column (Phenomenex).

HeLa cells = assay: Co‐localization studies (confocal microscopy, PCC and MOC); assay type: cell-based; details: 2 h, 5 μM CF‐DC‐2, CellLight ER‐RFP, mean ± SD of ≥37 cells, n = 2
Method: HeLa cells (30,000–40,000) were seeded into an 8‐well ibidi. For lysosomal and lipid droplet analysis, cells were treated for 30 min with 5 μM of CF‐labeled peptide combined with either 100 nM LysoTracker Red DND‐99 (Invitrogen) or a 1:1000 solution of distyryl Bodipy lipid droplet stain synthesized and kindly provided by Engelhardt et al.^[ [67] ^] diluted in serum‐free media under standard growth conditions. For Golgi analysis, cells were treated for 2 h with 5 μM CF‐labeled peptide under standard growth conditions. For the last 30 min of the incubation period, 1:100 BODIPY TR ceramide complexed to bovine serum albumine (BSA) (Invitrogen) was directly diluted into the well and incubated for the last 30 min together with the peptide. For ER staining, CellLight ER‐RFP, BacMam 2.0 (Invitrogen), was added to the cells and incubated overnight under standard growth conditions. The next day, the cells were treated for 2 h with 5 μM CF‐labeled peptides as described earlier. After the peptide and stain incubation, cells were washed three to four times with serum‐free medium. […] Pearson and Manders’ Coefficients were calculated using the JaCoP analysis tool.^[ [68] ^] For Golgi analysis, no PCC or MOC was determined as the unedited images contained a strong background signal.

**Q.** For “GLRKRLRKFRNKKMDHHCPW-NH2 [DC‐2, CPP sC18* fused to the DHHC motif derived from ZDHHC2/3/6/7/15/16/20]”, which HRas localization (mEGFP‐HRas) is on record?
**A.** The HRas localization was “altered HRas pattern”.

**Q.** What about the “peptide species observed in medium lacking L‐cystine” value ([1]; 5 µM CF-DC-2 in serum-free medium lacking L-cystine and L-methionine, LC‐MS (Figure S8A)) of the same substance?
**A.** Its value is “mostly reduced peptide was observed”.

**Q.** What about the “peptide species observed in normal cell culture medium” value ([1]; 5 µM CF-DC-2 in serum-free medium, before addition to HeLa cells and after 30 min at 37 °C, LC‐MS, Δmass = +119 Da (Figure S8A)) of the same substance?
**A.** The value was “S‐cysteinylation at the cysteine”.

**Q.** And the “disulfide dimer formation in normal cell culture medium” value ([1]; 5 µM CF-DC-2 in serum-free medium, before addition to HeLa cells or after 30 min at 37 °C, LC‐MS (Figure S8A))?
**A.** The value was “did not observe the disulfide dimer”.

**Q.** And the “Mander's overlap coefficient (MOC), ER” value (HeLa cells)?
**A.** Its value is 0.60 ± 0.20.

**Q.** What about the “Pearson correlation coefficient (PCC), ER” value (HeLa cells) of the same substance?
**A.** Its value is 0.37 ± 0.10.
